Measurements from US20050096360A1, “Inhibitors of semicarbazide-sensitive amine oxidase (SSAO) and VAP-1 mediated adhesion useful for treatment of diseases” (priority 2003, published 2005).
Structures can show the parent of a compound that is named as a salt.

What was measured:
[1] = system: carrageenan-induced paw edema in Sprague Dawley rats; test: Carrageenan-induced rat paw edema; type: in vivo; settings: for paw swelling: 100 mg/kg i.p. 15 minutes prior to carrageenan, 60, 120, 180 min, p<0.05
Procedure: Female Sprague Dawley rats were used and compounds of the invention were injected i.p. at 100 mg/kg 15 minutes prior to carrageenan exposure. The control group was injected with an equal volume of vehicle (PBS). Edema in the paws was induced as previously described by injecting 50 μl of a 0.5% solution of carrageenan (Type IV Lambda, Sigma) in saline with a 27-G needle s.c. in the right foot pat. (See Whiteley P. E. and Dalrymple S. A. (1998) Models of inflammation: carrageenan-induced paw edema in the rat, in Current Protocols in Pharmacology. Enna S J, Williams M, Ferkany J W, Kenaki T, Porsolt R E and Sullivan J P, eds., pp 5.4.1-5.4.3, John Wiley & Sons, New York) The size of the tested foot of each animal was measured volumetrically, before induction of edema, and at 60, 120, and 180 min after carrageenan induction.
Briefly, SSAO inhibitors (30 mg/kg), indomethacin (3 mg/kg) and PBS were administered orally to rats 1 hour after carrageenan injections.
To investigate further the role of SSAO inhibition in the inflammatory response, studies were carried out to assess the effect of SSAO inhibition on prostaglandin E2 (PGE2) levels. Animals were divided into four therapeutic groups of eight rats each. […] The fourth group received 3 mg/kg of dexamethasone, i.p. 1 hour before paw inflammation. Three hours after carrageenan injection, rats were asphyxiated with CO2 and their hind paws removed. The paws were lacerated with a scalpel, suspended off the bottom of a polypropylene 1.5 ml tube with a micropipette tip and centrifuged to express the inflammatory fluid. The volume collected from each paw was determined and the fluid was analyzed by ELISA for PGE2 production using a commercial kit (R&D Systems, Minneapolis, Minn.) according to the manufacturer's instructions. […] Data were analyzed with GraphPad Prism software (San Diego, Calif.) by Dunnett's test following analysis of variance.

[2] = system: adhesion of human PBMCs to rat HEC transfected with full-length human SSAO/VAP-1; test: In vitro adhesion of PBMCs to SSAO/VAP-1-transfected high endothelial cells; type: cell-based; settings: inhibitors at IC100 concentrations, antibody 10 μg/ml; 3 hr at 37° C.
Procedure: The studies in this Example were carried out in order to determine whether SSAO/VAP-1 transfected into endothelial cells retained the adhesion function and whether it played any role in the adhesion of freshly isolated human PBMCs to these cells. Moreover, the studies were also designed to determine whether blocking of SSAO/VAP-1 would have an impact on the level of adhesion between these two cell types. Adhesion assays were performed using cells labeled with the fluorescent dye Calcein-AM (Molecular Probes, OR, USA) as per the manufacturer's instructions. Briefly, rat lymph node high endothelial cells (HEC; isolation and culture was described in Ager, A. (1987) J. Cell Sci. 87: 133) were plated overnight in 96-well plates (2,000 cells/well). PBMCs (peripheral blood mononuclear cells) (1×10^7) were labeled with 1 ml of 10 μM Calcein-AM for 1 hr at 37° C., washed three times with RPMI, and added to the 96 well plates containing monolayers of HEC cells mock-transfected or transfected with full-length human SSAO/VAP-1 (60,000 PBMCs were plated per well containing 2,000 HEC cells). Adhesion was carried out for 3 hr at 37° C. Non-adherent cells were removed by washing three times with RPMI and fluorescence was measured in a fluorescence plate reader at an excitation wavelength of 485 nm and emission wavelength of 530 nm. Several controls were included, such as HEC cells and PBMCs (labeled and unlabeled) alone.
(§1) These studies were repeated using the adhesion assay as described above to evaluate the inhibitors of the invention. Adhesion blockers used included an anti-human VAP-1 monoclonal antibody (Serotec, Oxford, UK), neuramidase (a sialidase, because SSAO/VAP-1 is a sialoglycoprotein; Sigma), and several function-blocking antibodies to rat adhesion molecules (CD31-PECAM, CD54-ICAM-1, […]-P Selectin). […] Antibodies (10 μg/ml) and neuramidase (5 mU) were incubated with the HECs for 30 min at 37° C.; excess antibody was washed away prior to the addition of the labeled PBMCs. Small-molecule inhibitors were pre-incubated the same way at IC100 concentrations, but the amounts present in the supernatant were not washed away to preserve the IC100 concentration during the adhesion step.

SSAO = test: IC100 concentrations of SSAO inhibitors used in the adhesion assay; type: biochemical; settings: FIG. 7 legend
Text: FIG. 7 depicts the effect of blockage of SSAO/VAP-1 on binding between peripheral blood mononuclear cells (PBMCs) and high endothelial cells (HEC). FIG. 7A is a control experiment showing the effect of various compounds used for treatment on the adhesion of PBMCs to mock-transfected high endothelial cells; a non-treated control is included for comparison (MNT). FIG. 7B is a control experiment showing the effect of various compounds used for treatment on the adhesion of PBMCs to high endothelial cells transfected with VAP-1; a non-treated control is included for comparison (VNT).
as §1

Row | SMILES | paw swelling [1] | number of PBMCs adherent to SSAO/VAP-1 transfected HECs [2] | IC100 (SSAO) (SSAO) | PGE2 production in paw exudate ([1]; 50 mg/kg oral 1 hour prior to carrageenan, 3 hours after injection, equivalent to dexamethasone) | paw volume ([1]; 50 mg/kg oral 1 hour prior to carrageenan, FIG. 11A)
1 | C=C(CNN)c1ccc(F)cc1.Cl [Example 8, N-[2-(4′-fluorophenyl)-allyl]-hydrazine Hydrochloride] | clearly and significantly reduced | reduced | 250 nM |  | 
2 | C=C(CNN)c1ccccc1 [Example 2, Hydrochloride] | clearly and significantly reduced | reduced | 150 nM | significantly reduce | reduces
